According to patent US10064909B2, “Compositions and methods for chronic use of a weight-gaining compound” (priority 2015, dated 2018):

Experiments:
GH [1] = experiment: One-year dog safety study: GH plasma levels; format: in vivo, Beagle dogs; conditions: dogs, Days 1, 170 and 351 following treatment
Method: This study evaluated the safety of capromorelin in dogs. Thirty-two Beagle dogs were randomly assigned to four groups (n=4/sex/group) and received 0 mg/kg, 0.39 mg/kg, 9.2 mg/kg, or 52.4 mg/kg capromorelin (with the dose calculated per the tartrate salt) once daily by oral gavage for 12 consecutive months. Safety parameters were evaluated including clinical signs, food consumption, bodyweight, clinical pathology, urinalysis, ophthalmology, electrocardiogram and vital signs. Capromorelin, GH and IGF-1 were measured in plasma samples collected at various time points during the study. At the end of the dosing period, dogs were humanely euthanized and necropsied. Selected organs were weighed and tissue samples collected and processed for microscopic examination.

[2] = Safety of daily capromorelin in cats for 91 days at an oral dose of 6 mg/kg; format: in vivo
Method: (§1) This controlled study included two treatment groups with 4 adult cats receiving placebo (Group 1) and 8 adult cats receiving capromorelin (Formulation #9, as described above) (Group 2) for 91 consecutive days. All cats were offered food daily for a 6-hour period following an 11-day acclimation phase. All cats were weighed on Days −11, −1, 1, 14, 30, 59, 75, and 91. On Days 1 through 91, animals were orally administered capromorelin once daily via syringe at dose levels of 0 or 6 mg/kg. At one hour post-dose, all cats were offered food for a 6-hour period. Variables of interest included weight gain/loss, food consumption, clinical pathology, and serum analysis of IGF-1 and GH.
(§2) On Days 1, 30, 59, and 91, blood samples were collected prior to daily dose administration and at 8 hours post-dose and processed to serum for analysis of IGF-1 and GH levels. Hematology parameters included white blood count (WBC), hemoglobin (HgB), red blood count (RBC), platelet count (PLT), platelet morphology, hematocrit (HCT), mean corpuscular volume (MCV), mean corpuscular hemoglobin (MCH), WBC differential, RBC and WBC morphology, mean corpuscular hemoglobin concentration (MCHC), reticulocytes, and blood smear. Serum chemistry parameters measured included albumin (ALB), creatine kinase (CK), albumin/globulin ratio (A\G), globulin (GLOB), alkaline phosphatase (ALP), glucose (GLU), fructosamine, alanine aminotransferase (ALT), blood urea nitrogen (BUN), phosphorus (PHOS), calcium (Ca), potassium (K), chloride (Cl), sodium (Na), cholesterol (CHOL), total protein (TP), creatinine (CRE), total bilirubin (TBIL), BUN/creatinine ratio, and sodium/potassium ratio.
Urine samples were collected via cystocentesis and/or by collection in pans/trays from all cats for urinalysis. Before blood collection, all animals were fasted at least 8 hours. Urinalysis parameters measured included specific gravity (SG), pH (PH), color (COL), clarity (CLAR), blood (BLO), protein (UPRO), bilirubin (UBIL), glucose (UGLU), ketones (KET), and the microscopic examination of the sediments for RBC/hpf, WBC/hpf, bacteria (BACT), epithelial cells, mucus, casts, and crystals.

GH [3] = experiment: 91-day cat safety study: serum GH; format: in vivo; conditions: cats, 6 mg/kg, compared to placebo controls; attenuated through Days 30, 59, 91
Method: as §1
as §2, with “Hematology parameters included white blood count (WBC), hemoglobin (HgB), red blood count (RBC), platelet count (PLT), platelet morphology, hematocrit (HCT), mean corpuscular volume (MCV), mean corpuscular hemoglobin (MCH), WBC differential, RBC and WBC morphology, mean corpuscular hemoglobin concentration (MCHC), reticulocytes, and blood smear.” left out

[4] = Dose titration laboratory study (10 days): food consumption and bodyweight; format: in vivo; conditions: cats
Method: (§3) This study defined a capromorelin oral solution dose regime that provides increased food intake and weight gain and the accompanying desired profile of IGF-1 serum levels. Laboratory adult cats were housed individually and divided into five groups (3/sex/group; n=6/group). Cats were dosed once daily for 10 consecutive days with either placebo, 1 mg/kg AT-002, 2 mg/kg AT-002, 3 mg/kg AT-002 or 4 mg/kg AT-002. The test article was a flavored solution formulation very similar to the final formulation. Study activities are summarized at Table 5.
The percent change in food consumption from baseline (average of Day −3, Day −2, and Day −1) compared to the treatment period (average of Day 1 through Day 10) was calculated for each cat, and is summarized at Table 6. The mean percent change from baseline to the treatment period for the placebo group increased 13.0%.
The percent change in bodyweight from Day −1 compared to Day 10 was calculated for each cat, and is summarized at table 7. The mean percent change for the placebo group was −0.35%, indicating a decrease in weight. […] The 4 mg/kg AT-002 group approached statistical significance (p=0.0502)

[5] = Dose titration laboratory study (10 days): capromorelin serum levels; format: in vivo; conditions: cats
Method: as §3

IGF-1 [6] = experiment: Laboratory cats modelling CKD safety pilot study: IGF-1 levels; format: in vivo; conditions: cats with compromised kidney function, 2 mg/kg subcutaneous injection for 14 days
Method: Sixteen cats with compromised kidney function were enrolled in the study and randomized to three groups. Animals assigned to Group 1 (n=6) were administered AT-002 once on Day 0 by intravenous catheter at a dose rate of 0.75 mg/kg per cat. Animals assigned to Group 2 (n=6) were administered the AT-002 daily for 14 days by subcutaneous injection at a dose rate of 2 mg/kg. Subcutaneous and intravenous treatment routes were used to assure that sufficient drug exposure occurred. Animals assigned to Group 3 (n=4) served as untreated controls.
Blood samples were collected for capromorelin and/or IGF-1 analysis from animals assigned to Group 1 on Study Day 0. Blood samples were also collected from animals assigned to Groups 2 and 3 on Study Days −1 and 13 (prior to dosing) for hematology and clinical chemistry analysis. Appetite was assessed by food intake and weight gain. Bodyweight measurements were performed on Days −7, −1 (all groups) and on Day 13 (Groups 2 and 3 only). Food intake was monitored from Day −7 to Day 13 inclusive for animals assigned to Groups 2 and 3. Animals were observed daily for clinical signs.

IGF-1 [7] = experiment: Example 9 field study: IGF-1 serum levels; format: in vivo; conditions: cats with CKD, 2 mg/kg once daily
Method: A 1-mL blood sample was collected into a vacutainer tube containing no anticoagulant at the screening/qualification/Day 0, Day 30±2, Day 60±3 and Day 90±3 or at the last study visit (i.e. early removal). Blood samples were kept at room temperature and allowed to clot for about 1 hour. Clotted samples were centrifuged for approximately 15 minutes at 3000 RPM.

CN1N=C2CCN(C(=O)[C@@H](COCc3ccccc3)NC(=O)C(C)(C)N)C[C@@]2(Cc2ccccc2)C1=O.O=C(O)C(O)C(O)C(=O)O [capromorelin, N-[(2R)-1-[(3aR)-2-methyl-3-oxo-3a-(phenylmethyl)-6,7-dihydro-4H-pyrazolo[4,3-c]pyridin-5-yl]-1-oxo-3-(phenylmethoxy)propan-2-yl]-2-amino-2-methylpropanamide L-tartrate]
GH plasma levels (GH [1]): increased modestly
resolution of post-dose clinical observations ([2]; 6 mg/kg): usually resolved within five minutes
mean rate of bodyweight change ([2]; 6 mg/kg oral once daily, 91 days): 0.0086
mean bodyweight change from baseline (Day 1) ([2]; 6 mg/kg oral once daily, Day 14): 0.26 kg
mean bodyweight change from baseline (Day 1) ([2]; 6 mg/kg oral once daily, Day 30): 0.46 kg
mean bodyweight change from baseline (Day 1) ([2]; 6 mg/kg oral once daily, Day 59): 0.64 kg
mean bodyweight change from baseline (Day 1) ([2]; 6 mg/kg oral once daily, Day 75): 0.73 kg
mean bodyweight change from baseline (Day 1) ([2]; 6 mg/kg oral once daily, Day 91): 0.80 kg
food consumption, mean change from baseline ([2]; 6 mg/kg oral once daily, baseline average of Days -3 through -1): 14.95 grams
mean rate of bodyweight change, factor vs placebo ([2]; 6 mg/kg, 0.0086 vs 0.0010 for placebo): 8.6
chronic hyperglycemia ([2]; 6 mg/kg, 91 days): no chronic hyperglycemia
food consumption, mean rate of change ([2]; 6 mg/kg, a rate of one = one more gram of food consumed each day): 1.2396
creatinine levels ([2]; 6 mg/kg, acclimation to Day 91, reference range 0.6 to 2.4 mg/dL): within the normal reference range
BUN levels ([2]; 6 mg/kg, acclimation to Day 91, reference range 14 to 36 mg/dL): within the normal reference range
serum glucose levels ([2]; 6 mg/kg, compared to the placebo group): increased
serum fructosamine ([2]; 6 mg/kg, reference range 191 to 349 μmol/L): No fructosamine values exceeded the normal reference range
most common clinical observations ([2]; 6 mg/kg, seen immediately post-dose): hypersalivation (ptyalism), lip smacking, emesis, and head shaking
GH following treatment (GH [3]): increased
Food Consumption, Percent Change From Baseline ([4]; 1 mg/kg SID, Day 1-10 vs Days -3 to -1): 30.54%
Bodyweight, Percent Change From Baseline ([4]; 1 mg/kg SID, Day -1 to Day 10): 3.07%
Food Consumption, Percent Change From Baseline ([4]; 2 mg/kg SID, Day 1-10 vs Days -3 to -1): 45.53%
Bodyweight, Percent Change From Baseline ([4]; 2 mg/kg SID, Day -1 to Day 10): 3.66%
Food Consumption, Percent Change From Baseline ([4]; 3 mg/kg SID, Day 1-10 vs Days -3 to -1): 54.04%
Bodyweight, Percent Change From Baseline ([4]; 3 mg/kg SID, Day -1 to Day 10): 5.72%
Food Consumption, Percent Change From Baseline ([4]; 4 mg/kg SID, minus 5F1, Day 1-10 vs Days -3 to -1): 78.82%
Bodyweight, Percent Change From Baseline ([4]; 4 mg/kg SID, minus 5F1, Day -1 to Day 10): 3.57%
capromorelin accumulation in serum ([5]; 10 days once daily): no evidence of capromorelin accumulation
capromorelin serum concentrations by 8 hours post-dose ([5]; all AT-002 treated groups): very low levels
absorption ([5]; oral flavored solution): well absorbed
time of maximum serum concentrations ([5]; oral solution 1-4 mg/kg, post-dose): ≤ 30 min
IGF-1 levels (IGF-1 [6]): sustained increase
IGF-1 serum levels following administration (IGF-1 [7]): increase
